Results from patent US10183943B2, “Heterocyclic compounds and their use in preventing or treating bacterial infections” (MUTABILIS, priority 2015, dated 2019).

How the values were obtained:
[1] = molecular target: T1, OXA-15 (Pseudomonas aeruginosa, UniProt Q51574); assay: biochemical
T1 construct: made in house; host or cells: E. coli

[2] = molecular target: T2, KPC-2 (Klebsiella pneumoniae, UniProt Q9F663); assay: β-lactamase inhibitory activity, determination of IC50 (nitrocefin hydrolysis); assay type: biochemical
T2 construct: made in house; host or cells: E. coli

[3] = molecular target: T3, OXA-48 (Klebsiella pneumoniae, UniProt Q6XEC0); assay: as above; assay type: biochemical
T3 construct: made in house; host or cells: E. coli

[4] = molecular target: T4, SHV-1 (Klebsiella pneumoniae, UniProt P0AD64); assay: as above; assay type: biochemical
T4 construct: made in house; host or cells: E. coli

[5] = molecular target: T5, OXA-11 (Pseudomonas aeruginosa, UniProt Q06778); assay: as above; assay type: biochemical
T5 construct: made in house; host or cells: E. coli

[6] = molecular target: T6, CTX-M-15 (Escherichia coli, UniProt Q9EXV5); assay: as above; assay type: biochemical
T6 construct: made in house; host or cells: E. coli

[7] = molecular target: T7, TEM-1 (Escherichia coli, UniProt P62593); assay: as above; assay type: biochemical
T7 construct: made in house; host or cells: E. coli

[8] = molecular target: AmpC P. aeruginosa (Pseudomonas aeruginosa, UniProt P24735); assay: as above
[9] = test system: K. pneumoniae UFR24 (TEM-1, SHV-2, SHV-11, OXA-1, OXA-48, OXA-47); assay: MIC of compounds alone, broth microdilution; assay type: cell-based; details: Klebsiella pneumoniae, read-out: MIC compounds of the invention alone
Summary of the method: (§1)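 Broth microdilution per CLSI M7-A7: compounds alone, in DMSO, challenged with log-phase bacteria at 5×10^5 cfu/mL in cation-adjusted Mueller-Hinton broth. Plates incubated 16-20 h at 35° C in ambient air; MIC is the lowest concentration preventing visible growth.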

[10] = test system: E. cloacae UFR51 (SHV-12, IMP-8); assay: MIC of compounds alone, broth microdilution; assay type: cell-based; details: Enterobacter cloacae, read-out: MIC compounds of the invention alone
Summary of the method: as §1

[11] = test system: E. coli UFR18 (CTX-M-15, OXA-204); assay: MIC of compounds alone, broth microdilution; assay type: cell-based; details: Escherichia coli, read-out: MIC compounds of the invention alone
Summary of the method: as §1

[12] = test system: K. pneumoniae 6299 (TEM-1, SHV-11, OXA-163); assay: MIC of compounds alone, broth microdilution; assay type: cell-based; details: Klebsiella pneumoniae, read-out: MIC compounds of the invention alone
Summary of the method: as §1

[13] = test system: K. pneumoniae 200047 (TEM-1, SHV-32, CTX-M-15, OXA-1); assay: MIC of compounds alone, broth microdilution; assay type: cell-based; details: Klebsiella pneumoniae, read-out: MIC compounds of the invention alone
Summary of the method: as §1

[14] = test system: E. cloacae 260508 (TEM-1, CTX-M-15); assay: MIC of compounds alone, broth microdilution; assay type: cell-based; details: Enterobacter cloacae, read-out: MIC compounds of the invention alone
Summary of the method: as §1

[15] = test system: K. pneumoniae UFR39 (CTX-M-15, NDM-1); assay: MIC of compounds alone, broth microdilution; assay type: cell-based; details: Klebsiella pneumoniae, read-out: MIC compounds of the invention alone
Summary of the method: as §1

[16] = test system: E. coli RGN238 (OXA-1); assay: MIC of compounds alone, broth microdilution; assay type: cell-based; details: Escherichia coli, read-out: MIC compounds of the invention alone
Summary of the method: as §1

[17] = test system: E. cloacae P99 (AmpC); assay: MIC of compounds alone, broth microdilution; assay type: cell-based; details: Enterobacter cloacae, read-out: MIC compounds of the invention alone
Summary of the method: as §1

[18] = test system: E. coli 131119 (TEM-1, OXA-48); assay: MIC of compounds alone, broth microdilution; assay type: cell-based; details: Escherichia coli, read-out: MIC compounds of the invention alone
Summary of the method: as §1

[19] = test system: E. cloacae UFR70 (TEM-1, CTX-M-15, CMY-2, OXA-1, Porin loss); assay: MIC of compounds alone, broth microdilution; assay type: cell-based; details: Enterobacter cloacae, read-out: MIC compounds of the invention alone
Summary of the method: as §1

[20] = test system: E. cloacae UFR85 (TEM-1, CTX-M-15, AmpC); assay: MIC of compounds alone, broth microdilution; assay type: cell-based; details: Enterobacter cloacae, read-out: MIC compounds of the invention alone
Summary of the method: as §1

[21] = test system: K. pneumoniae 160143 (TEM-1, SHV-1, CTX-M-15, KPC-2, OXA-1); assay: MIC of compounds alone, broth microdilution; assay type: cell-based; details: Klebsiella pneumoniae, read-out: MIC compounds of the invention alone
Summary of the method: as §1

[22] = test system: K. oxytoca UFR21 (TEM-1, CTX-M-15, OXA-48); assay: MIC of compounds alone, broth microdilution; assay type: cell-based; details: Klebsiella oxytoca, read-out: MIC compounds of the invention alone
Summary of the method: as §1

[23] = test system: E. coli UFR74 (SHV-1, DHA-1); assay: MIC of compounds alone, broth microdilution; assay type: cell-based; details: Escherichia coli, read-out: MIC compounds of the invention alone
Summary of the method: as §1

[24] = test system: E. coli UFR32 (TEM-1, VEB-1, OXA-10); assay: MIC of compounds alone, broth microdilution; assay type: cell-based; details: Escherichia coli, read-out: MIC compounds of the invention alone
Summary of the method: as §1

[25] = test system: K. pneumoniae BAA-1898 (TEM-1, SHV-11, SHV-12, KPC-2); assay: MIC of compounds alone, broth microdilution; assay type: cell-based; details: Klebsiella pneumoniae, BAA1898, read-out: MIC compounds of the invention alone
Summary of the method: as §1

[26] = test system: P. aeruginosa CIP107051 (TEM-24); assay: MIC of compounds alone, broth microdilution; assay type: cell-based; details: Pseudomonas aeruginosa, CIP107051, read-out: MIC compounds of the invention alone
Summary of the method: as §1

[27] = test system: E. coli UFR41 (TEM-1, CTX-M-15, CMY-2, OXA-1, NDM-4); assay: MIC of compounds alone, broth microdilution; assay type: cell-based; details: Escherichia coli, read-out: MIC compounds of the invention alone
Summary of the method: as §1

[28] = test system: E. coli UFR61O (TEM-1, KPC-2); assay: MIC of compounds alone, broth microdilution; assay type: cell-based; details: Escherichia coli, read-out: MIC compounds of the invention alone
Summary of the method: as §1

[29] = test system: E. coli 190317 (TEM-1, SHV-12, CTX-M-15, OXA-1); assay: MIC of compounds alone, broth microdilution; assay type: cell-based; details: Escherichia coli, read-out: MIC compounds of the invention alone
Summary of the method: as §1

[30] = test system: K. pneumoniae UFR77 (CMY-2); assay: MIC of compounds alone, broth microdilution; assay type: cell-based; details: Klebsiella pneumoniae, read-out: MIC compounds of the invention alone
Summary of the method: as §1

[31] = test system: K. pneumoniae UFR68 (TEM-1, SHV-11, CTX-M-15, KPC-3); assay: MIC of compounds alone, broth microdilution; assay type: cell-based; details: Klebsiella pneumoniae, read-out: MIC compounds of the invention alone
Summary of the method: as §1

[32] = molecular target: AmpC (P99) (Enterobacter cloacae, UniProt P05364); assay: β-lactamase inhibitory activity, determination of IC50 (nitrocefin hydrolysis)
[33] = molecular target: T8, OXA-1 (Escherichia coli, UniProt P13661); assay: as above; assay type: biochemical
T8 construct: made in house; host or cells: E. coli
T8 sequence (P13661 26-276): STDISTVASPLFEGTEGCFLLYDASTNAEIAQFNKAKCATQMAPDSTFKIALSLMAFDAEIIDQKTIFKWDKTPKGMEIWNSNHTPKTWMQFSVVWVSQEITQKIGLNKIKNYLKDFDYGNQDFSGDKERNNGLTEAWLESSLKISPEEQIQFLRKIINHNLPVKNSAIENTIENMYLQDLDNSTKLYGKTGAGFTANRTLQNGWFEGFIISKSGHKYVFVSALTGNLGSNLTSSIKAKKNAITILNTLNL

T7 sequence (P62593 24-286 limits assumed): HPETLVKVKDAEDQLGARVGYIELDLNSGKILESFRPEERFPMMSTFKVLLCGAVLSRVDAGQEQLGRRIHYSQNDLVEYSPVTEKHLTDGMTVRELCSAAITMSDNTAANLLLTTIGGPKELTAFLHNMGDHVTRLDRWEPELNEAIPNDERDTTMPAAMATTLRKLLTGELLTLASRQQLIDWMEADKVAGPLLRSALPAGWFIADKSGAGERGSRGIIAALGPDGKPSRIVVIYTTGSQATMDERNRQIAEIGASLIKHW
Sequence of AmpC (P99) (P05364 21-381): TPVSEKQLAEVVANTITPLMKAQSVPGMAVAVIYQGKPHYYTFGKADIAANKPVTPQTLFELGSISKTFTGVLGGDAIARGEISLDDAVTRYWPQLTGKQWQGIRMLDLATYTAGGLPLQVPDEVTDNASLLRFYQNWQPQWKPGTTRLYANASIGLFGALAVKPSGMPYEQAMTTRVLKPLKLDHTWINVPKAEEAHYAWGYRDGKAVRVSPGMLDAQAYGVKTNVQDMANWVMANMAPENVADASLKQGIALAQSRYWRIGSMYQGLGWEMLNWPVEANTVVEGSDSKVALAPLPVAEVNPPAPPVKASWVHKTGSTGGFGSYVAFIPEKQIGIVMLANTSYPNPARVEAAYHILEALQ
T4 sequence (P0AD64 22-286): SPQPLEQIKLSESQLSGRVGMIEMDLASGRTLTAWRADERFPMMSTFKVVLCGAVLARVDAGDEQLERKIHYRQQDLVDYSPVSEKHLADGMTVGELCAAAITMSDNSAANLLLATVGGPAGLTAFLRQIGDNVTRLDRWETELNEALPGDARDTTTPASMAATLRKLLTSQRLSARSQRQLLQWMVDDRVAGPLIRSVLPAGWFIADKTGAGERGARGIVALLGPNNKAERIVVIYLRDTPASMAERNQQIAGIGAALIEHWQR
T6 sequence (Q9EXV5 entry or part of it): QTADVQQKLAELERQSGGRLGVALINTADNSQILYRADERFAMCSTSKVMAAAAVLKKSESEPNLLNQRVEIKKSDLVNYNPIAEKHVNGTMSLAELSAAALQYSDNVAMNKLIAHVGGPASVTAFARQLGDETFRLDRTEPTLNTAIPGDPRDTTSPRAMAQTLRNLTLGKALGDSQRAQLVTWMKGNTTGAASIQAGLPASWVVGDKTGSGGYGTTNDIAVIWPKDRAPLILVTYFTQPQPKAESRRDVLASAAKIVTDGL
Sequence of AmpC P. aeruginosa (P24735 27-397): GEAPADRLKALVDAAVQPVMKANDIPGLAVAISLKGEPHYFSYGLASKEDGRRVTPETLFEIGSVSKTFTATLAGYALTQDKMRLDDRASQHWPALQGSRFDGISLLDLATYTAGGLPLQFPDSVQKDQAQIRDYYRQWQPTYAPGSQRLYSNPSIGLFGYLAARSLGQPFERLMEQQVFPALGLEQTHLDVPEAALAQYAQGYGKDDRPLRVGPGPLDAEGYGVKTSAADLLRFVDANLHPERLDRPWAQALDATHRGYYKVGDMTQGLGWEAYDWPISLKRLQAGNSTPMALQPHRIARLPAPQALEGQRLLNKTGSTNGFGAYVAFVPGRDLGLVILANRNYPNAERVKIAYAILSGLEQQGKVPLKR
T2 sequence (Q9F663 25-293 limits assumed): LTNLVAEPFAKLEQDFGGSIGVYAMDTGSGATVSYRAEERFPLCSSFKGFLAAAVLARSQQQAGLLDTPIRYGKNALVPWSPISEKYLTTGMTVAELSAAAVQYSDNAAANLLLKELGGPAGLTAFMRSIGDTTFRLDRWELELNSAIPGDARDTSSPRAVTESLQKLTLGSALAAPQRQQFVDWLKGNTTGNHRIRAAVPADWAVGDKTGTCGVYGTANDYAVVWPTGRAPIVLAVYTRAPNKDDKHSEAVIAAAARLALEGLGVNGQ
T3 sequence (Q6XEC0 23-265 limits assumed): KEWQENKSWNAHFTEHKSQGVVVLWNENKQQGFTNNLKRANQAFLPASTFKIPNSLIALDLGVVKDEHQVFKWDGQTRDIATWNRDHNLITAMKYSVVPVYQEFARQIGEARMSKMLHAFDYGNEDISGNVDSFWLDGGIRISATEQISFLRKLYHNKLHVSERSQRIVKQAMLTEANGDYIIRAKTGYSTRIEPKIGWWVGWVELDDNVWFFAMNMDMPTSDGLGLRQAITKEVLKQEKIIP
T5 sequence (Q06778 21-266): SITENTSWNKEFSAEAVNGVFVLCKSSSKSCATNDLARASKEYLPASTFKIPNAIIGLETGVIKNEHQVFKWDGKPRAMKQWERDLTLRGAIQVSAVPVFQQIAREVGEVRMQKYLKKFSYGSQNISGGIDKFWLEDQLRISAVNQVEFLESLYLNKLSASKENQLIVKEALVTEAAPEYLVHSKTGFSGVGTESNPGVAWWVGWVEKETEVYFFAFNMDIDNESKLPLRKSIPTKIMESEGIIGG
T1 sequence (Q51574 22-275): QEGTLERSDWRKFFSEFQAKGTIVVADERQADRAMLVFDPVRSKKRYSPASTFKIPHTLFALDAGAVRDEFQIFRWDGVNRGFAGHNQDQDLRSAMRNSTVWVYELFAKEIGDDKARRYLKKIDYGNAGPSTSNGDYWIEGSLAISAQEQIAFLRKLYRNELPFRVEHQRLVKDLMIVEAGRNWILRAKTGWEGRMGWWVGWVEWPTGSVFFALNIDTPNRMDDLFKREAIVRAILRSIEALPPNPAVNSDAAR

O=C1N2CC(c3ncco3)=C[C@H](C2)N1OC(F)(F)C(=O)O (racemic) [Example 37]
IC50 [1]: 59 nM | IC50 [2]: 53 nM | IC50 [3]: 1.8 nM | IC50 [4]: 13 nM | IC50 [5]: 210 nM | IC50 [6]: 0.57 nM | IC50 [7]: 1.6 nM | IC50 [8]: 240 nM | MIC [9]: 4 µg/mL | MIC [10]: 4 µg/mL | MIC [11]: 2 µg/mL | MIC [12]: 8 µg/mL | MIC [13]: 2 µg/mL | MIC [14]: 4 µg/mL | MIC [15]: 8 µg/mL | MIC [16]: 2 µg/mL | MIC [17]: 8 µg/mL | MIC [18]: 2 µg/mL | MIC [19]: 2 µg/mL | MIC [20]: 2 µg/mL | MIC [21]: 4 µg/mL | MIC [22]: 4 µg/mL | MIC [23]: 4 µg/mL | MIC [24]: 2 µg/mL | MIC [25]: 4 µg/mL | MIC [26]: > 128 µg/mL | MIC [27]: 16 µg/mL | MIC [28]: 8 µg/mL | MIC [29]: 2 µg/mL | MIC [30]: 4 µg/mL | MIC [31]: 4 µg/mL | IC50 [32]: 630 nM | IC50 [33]: 7400 nM
